≈ marks a conversion by molar mass, not a printed value. Read-outs that look alike come from different tables or passages of the source.
Columns and labels:
[1] = tested on: S. aureus DSM2569; assay: MIC, standard microdilution assay, growing S. aureus; assay type: cell-based, Staphylococcus aureus; conditions: S. aureus, CA-MHB pH 7.4, read-out: MIC (μM) CA-MHB
Procedure, shortened: (§1)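 Standard microdilution protocol, triplicate wells. For S. flexneri the growth medium is TSB. The other three strains are grown in HEPES-buffered (40 mM, pH 7.4) CA-MHB, and UPEC is also run at pH 5.5 in LPM containing 30 mM MES.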

[2] = tested on: E. coli CFT073 (UPEC); assay: MIC, standard microdilution assay, growing UPEC; assay type: cell-based, Escherichia coli
Procedure, shortened: as §1

[3] = tested on: non-growing P. aeruginosa DSM1117; assay: Dilution-regrowth assay (OD600, start-growth-time) on stationary-phase P. aeruginosa; assay type: cell-based, Pseudomonas aeruginosa; conditions: P. aeruginosa; for Regrowth, OD600 at 6h or 8h after dilution into drug-free medium: average; for EC50: regrowth delay of non-growing bacteria, 1:4 CA-MHB pH 7.4, 24 h treatment, OD600 8 h after dilution, read-out: EC50
Procedure, shortened: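 Stationary-phase cultures grown 24 h at 37 °C, 200 rpm, in 1:4 CA-MHB with 40 mM HEPES (pH 7.4), treated 24 h; preliminary compounds at 20 μM, 4 replicates. Regrowth OD600 read every 20 min at 37 °C; start-growth-time is when OD600 exceeds 0.12.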

[4] = tested on: intracellular S. flexneri 5a M90T in TC7 cells; assay: microbe, parasite or virus in culture; assay type: cell-based, Shigella flexneri; conditions: for Fluorescence intensity (RFU), Mean, 0.25 x MIC / Fluorescence intensity (RFU), Mean, 0.5 x MIC / Fluorescence intensity (RFU), Mean, 2 x MIC / Fluorescence intensity (RFU), Mean, 4 x MIC / Fluorescence intensity (RFU), Mean, 8 x MIC / Fluorescence intensity (RFU), Mean, 16 x MIC / Fluorescence intensity (RFU), Mean, 32 x MIC / Fluorescence intensity (RFU), Mean, MIC / Fluorescence intensity (RFU), Mean, 0.0625 x MIC / Fluorescence intensity (RFU), Mean, 0.125 x MIC: TC7 cells infected with GFP-expressing S. flexneri, 14 h treatment; for MIC:IC50 ratio: S. flexneri MIC in TSB versus intracellular IC50
[5] = tested on: S. flexneri 5a M90T; assay: MIC in tryptic soy broth, S. flexneri; assay type: cell-based, Shigella flexneri; conditions: for MIC: Shigella flexneri, 5AM90T, read-out: MIC (μM) TSB; for MIC (μM) TSB: S. flexneri, extracellular bacteria in TSB
Procedure, shortened: as §1

[6] = Escherichia coli, E. coli, pH 7.4, CA-MHB, read-out: MIC (μM) CA-MHB
[7] = Pseudomonas aeruginosa, DSM1117
[8] = Escherichia coli, E. coli, LPM pH 5.5, read-out: MIC
[9] = Escherichia coli, E. coli, pH 7.4, 1:4 diluted CA-MHB, read-out: MIC (μM) 1:4 CA-MHB
[10] = E. coli, LPM pH 5.5, read-out: MIC
[11] = E. coli, pH 7.4, CA-MHB, read-out: MIC (μM) CA-MHB

Structure (SMILES) | MIC ([1]; Staphylococcus aureus, DSM2569) [µM] | MIC [2, 6] [µM] | EC50 [3, 7] [nM] | IC50 ([4]; Shigella flexneri, TC7, 14 h) [nM] | Fluorescence intensity (RFU), Mean, 0.25 x MIC [4] [RFU] | Fluorescence intensity (RFU), Mean, 0.5 x MIC [4] [RFU] | Fluorescence intensity (RFU), Mean, 2 x MIC [4] [RFU] | Fluorescence intensity (RFU), Mean, 4 x MIC [4] [RFU] | Fluorescence intensity (RFU), Mean, 8 x MIC [4] [RFU] | Fluorescence intensity (RFU), Mean, 16 x MIC [4] [RFU] | Fluorescence intensity (RFU), Mean, 32 x MIC [4] [RFU] | Fluorescence intensity (RFU), Mean, MIC [4] [RFU] | MIC [5] [µM] | MIC [2, 8] [µM] | further results
COc1c(N2C[C@@H]3CCCN[C@@H]3C2)c(F)cc2c(=O)c(C(=O)O)cn(C3CC3)c12 [Moxifloxacin] | 0.125 (≈ 0.0502 µg/mL) | 0.125 (≈ 0.0502 µg/mL) | 264 | 35 | 7400.12 | 5542.67 | 3672.56 | 2897.78 | 2156.25 | 1789.81 | 1608.56 | 3564.03 | 0.0625 (≈ 0.0251 µg/mL) |  | Regrowth, OD600 at 6h or 8h after dilution into drug-free medium ([3]; concentration 0.1): 0.549; Regrowth, OD600 at 6h or 8h after dilution into drug-free medium ([3]; concentration 0.5): 0.215; Regrowth, OD600 at 6h or 8h after dilution into drug-free medium ([3]; concentration 2.5): 0.094; Regrowth, OD600 at 6h or 8h after dilution into drug-free medium ([3]; concentration 10): 0.093
Cc1oc(=O)oc1CN1CCN(c2cc3c(cc2F)c(=O)c(C(=O)O)c2n3C(C)S2)CC1 (stereo not drawn) [Prulifloxacin] | 4 (≈ 1.85 µg/mL) | 0.025 (≈ 0.0115 µg/mL) | 97 | 147 |  |  | 8759.64 | 6976.67 | 4116.28 | 3279.44 | 2886.92 | 8494.31 | 0.0312 (≈ 0.0144 µg/mL) | 0.125 (≈ 0.0577 µg/mL) | Regrowth, OD600 at 6h or 8h after dilution into drug-free medium ([3]; concentration 2.5): 0.094; Regrowth, OD600 at 6h or 8h after dilution into drug-free medium ([3]; concentration 10): 0.095; MIC:IC50 ratio [4]: below 0.5
CC[C@H]1OC(=O)C[C@@H](O)[C@H](C)[C@@H](O[C@@H]2O[C@H](C)C[C@H](N(C)C)[C@H]2O)[C@@H](CC=O)C[C@@H](C)C(=O)/C=C/[C@]2(C)O[C@H]2[C@@H]1C [Rosamicin] | 2 (≈ 1.16 µg/mL) | 25 (≈ 14.5 µg/mL) | 2300 | 23600 | 9383.2 | 8207.86 | 3601.92 | 1830.75 |  |  |  | 6316.33 | 16 (≈ 9.31 µg/mL) |  | MIC [2, 9]: 6.25 µM (≈ 3.64 µg/mL)
O=C(O)c1cn(-c2ccc(F)cc2)c2cc(N3CCNCC3)c(F)cc2c1=O [Sarafloxacin] | 1 (≈ 0.385 µg/mL) | 0.05 (≈ 0.0193 µg/mL) | 216 | 114 |  |  | 5001.97 | 3626.47 | 3165.28 | 2660.39 | 2149.72 | 7309.11 | 0.0625 (≈ 0.0241 µg/mL) | 0.5 (≈ 0.193 µg/mL) | 
CC(=O)[O][Pt]([NH2])([Cl])([Cl])([NH]C1CCCCC1)[O]C(C)=O [Satraplatin] |  |  |  |  | 8685.25 | 7328.94 | 2689 |  |  |  |  | 4882 |  |  | MIC [1]: 80 µM; MIC [2, 10]: 32 µM; MIC [2, 11]: >160 µM; Regrowth, OD600 at 6h or 8h after dilution into drug-free medium (average) ([3]; drug concentration 0.1): 0.622; Regrowth, OD600 at 6h or 8h after dilution into drug-free medium (average) ([3]; drug concentration 0.5): 0.518; Regrowth, OD600 at 6h or 8h after dilution into drug-free medium (average) ([3]; drug concentration 2.5): 0.207; Regrowth, OD600 at 6h or 8h after dilution into drug-free medium (average) ([3]; drug concentration 10): 0.094; EC50 [3]: 1200 nM; Fluorescence intensity (RFU), Mean, 0.0625 x MIC [4]: 9460.97 RFU; Fluorescence intensity (RFU), Mean, 0.125 x MIC [4]: 9284.03 RFU; MIC (μM) TSB [5]: 128 µM
N[C@@H]1CN(c2c(F)cc3c(=O)c(C(=O)O)cn([C@@H]4C[C@@H]4F)c3c2Cl)CC12CC2 [Sitafloxacin] |  |  |  |  |  |  | 4007.53 | 3422.83 | 3200.25 | 2414.89 | 2083.61 | 5217.75 |  |  | MIC [1]: 0.125 µM (≈ 0.0512 µg/mL); MIC [2, 10]: 0.5 µM (≈ 0.205 µg/mL); MIC [2, 11]: 0.025 µM (≈ 0.0102 µg/mL); EC50 [3]: 54 nM; IC50 ([4]; intracellular S. flexneri in TC7 cells, GFP fluorescence after 14 h treatment, read-out: IC50): 25 nM; MIC (μM) TSB [5]: 0.01562 µM (≈ 0.0064 µg/mL)
CC[C@H]1OC(=O)[C@@](C)(F)C(=O)[C@H](C)[C@@H](O[C@@H]2O[C@H](C)C[C@H](N(C)C)[C@H]2O)[C@](C)(OC)C[C@@H](C)C(=O)[C@H](C)[C@H]2N(CCCCn3cc(-c4cccc(N)c4)nn3)C(=O)O[C@]12C [Solithromycin] | 0.05 (≈ 0.0423 µg/mL) | 8 (≈ 6.76 µg/mL) | 158 | 1680 | 4637.62 | 2156.75 | 1563.03 | 1560.69 | 1548.25 | 1546 | 1533.19 | 1837.61 | 8 (≈ 6.76 µg/mL) |  | MIC (μM) CA-MHB +PAβN ([2]; E. coli, pH 7.4, CA-MHB with 10 μg/ml efflux pump inhibitor PaβN): 4 µM (≈ 3.38 µg/mL); MIC [2, 9]: 10 µM (≈ 8.45 µg/mL); MIC:IC50 ratio [4]: > 2; Fluorescence intensity (RFU), Mean, 0.0625 x MIC [4]: 9882.71 RFU; Fluorescence intensity (RFU), Mean, 0.125 x MIC [4]: 9214.08 RFU
C[C@@H]1CN(c2c(F)c(N)c3c(=O)c(C(=O)O)cn(C4CC4)c3c2F)C[C@H](C)N1 [Sparfloxacin] | 0.25 (≈ 0.0981 µg/mL) | 0.025 (≈ 0.00981 µg/mL) | 381 | 12 | 5576.79 | 4270.29 | 2726.47 | 2375.69 | 1916.33 | 1615.39 | 1554.53 | 2934.67 | 0.0312 (≈ 0.0123 µg/mL) |  | MIC:IC50 ratio [4]: > 2
NC1CCN(c2nc3c(cc2F)c(=O)c(C(=O)O)cn3-c2ccc(F)cc2F)C1 (stereo not drawn) [Tosufloxacin] | 0.25 (≈ 0.101 µg/mL) | 0.05 (≈ 0.0202 µg/mL) | 237 | 25 |  |  | 4963.31 | 3475.06 | 3341.83 | 2905.56 | 2463.67 | 6769 | 0.0156 (≈ 0.00632 µg/mL) | 0.125 (≈ 0.0505 µg/mL) | 
N[C@@H]1[C@H]2CN(c3nc4c(cc3F)c(=O)c(C(=O)O)cn4-c3ccc(F)cc3F)C[C@@H]12 [Trovafloxacin] | 0.125 (≈ 0.052 µg/mL) | 0.4 (≈ 0.167 µg/mL) | 1020 | 37 | 8024.79 | 6129.12 | 2933.5 | 2559.17 | 2016.56 | 1696.44 | 1579.94 | 3277.92 | 0.0625 (≈ 0.026 µg/mL) |  | MIC ([2]; Escherichia coli, pH 5.5): 0.0625 µM (≈ 0.026 µg/mL); Fluorescence intensity (RFU), Mean, 0.125 x MIC [4]: 8837.54 RFU
CC1Sc2c(C(=O)O)c(=O)c3cc(F)c(N4CCNCC4)cc3n21 (stereo not drawn) [Ulifloxacin] | 1 (≈ 0.349 µg/mL) | 0.025 (≈ 0.00873 µg/mL) | 82 | 101 |  |  | 6924.86 | 4362.58 | 3208.03 | 2720.44 | 2065.19 | 8271.31 | 0.0312 (≈ 0.0109 µg/mL) | 0.125 (≈ 0.0437 µg/mL) | 

Source: PMC11992225, “Antibacterial compounds against non-growing and intracellular bacteria” (npj Antimicrobials and Resistance, 2025)
